# Assay results as given in US8946199B2, “Co-administration of steroids and Zoledronic acid to prevent and treat side effects from Zoledronic acid infusion” (priority 2010, dated 2015).
# Key:
# [1] = in vivo; cited from earlier work
# [2] = patients with osteoporosis; Zoledronic Acid alone, 3 patients
# Procedure: In theory, co-administration of a steroid for a short duration could decrease inflammation and therefore the incidence of ONJ. […] A study comparing the incidence of PDS with Zoledronic acid with a Zoledronic Acid and steroid combination is, however, feasible and such a study has been undertaken.
# Eight patients with osteoporosis were treated with Zoledronic Acid alone (3 patients) or with the combination of steroids (oral prednisone, 3, and intravenous prednisolone, 2) with Zoledronic Acid.
# [3] = administration of Zometa; syndrome of fever, nausea, bone pain, arthralgia, myalgia, chills; cited from earlier work
compound,measurement,setting,value
O=P(O)(O)C(O)(Cn1ccnc1)P(=O)(O)O [Zoledronic Acid],t1/2α,[1],14.4 min
same,patients who suffered from PDS,[2],All three
same,patients affected by post-dosing syndrome (PDS),[3],≤ 44%
